Consider 13 molecules from patent US11219627B2, “Clearance of amyloid beta” (priority 2014, dated 2022).

Data set [1] is described as follows: liver microsome stability. The class given is in vitro ADME, Mouse.
Data set [2] relates to patients with mild AD. As to conditions: 12 weeks; cited from earlier work.
The test system of data set [3] is patients with moderate, but not mild Alzheimer's disease. As to conditions: 36-week study; cited from earlier work.
In data set [4] the test system is γ-secretase. As to conditions: cited from earlier work.
Data set [5] deals with γ-secretase. As to conditions: in vivo; cited from earlier work.
Data set [6] has as its system γ-secretase. As to conditions: human, in vivo; cited from earlier work.
Data set [7] deals with adrenal chromaffin and human neuroblastoma cells. The conditions noted are these: cited from earlier work.
The subject of data set [8] is Primary rat cultured cortical neurons. As to conditions: cited from earlier work.
For data set [9] the following is noted: 78-week study; cited from earlier work.
The target of data set [10] is T1, α7 nicotinic receptors (Rattus norvegicus, UniProt Q05941).
T1 construct: Primary cultured rat neurons can be depolarized by the application of 1.5 mM choline; endogenous in cells; host or cells: primary cultured rat neurons
As to conditions: cited from earlier work.

In data set [11] the target is T2, acetylcholinesterase (Homo sapiens, UniProt P22303). As to conditions: read-out: IC50 for acetylcholinesterase inhibition; cited from earlier work.
Data set [12] deals with Mice with lesions of the nucleus basalis magnocellularis (nBm). The conditions noted are these: cited from earlier work.
Data set [13] has as its target T2, acetylcholinesterase. As to the kind of experiment: acetylcholinesterase inhibition. The class given is biochemical. From the text:
This compound was first described in Han et al as a cholinesterase inhibitor in Bioorg. & Medicinal Chemistry Letters 1, 11 579-580 (1991).

A short description of data set [14]: stability in mouse plasma.
In data set [15] the test system is mice. The conditions noted are these: cited from earlier work.
Data set [16] deals with Bv-2 microglial cells. As to the kind of experiment: Abeta 1-42 oligomer clearance in microglial Bv-2 cell culture. The class given is cell-based. As to conditions: applied for 24 hours, 0.11 to 0.67 μM; oligomerized Aβ1-42 10 μM for 6 h. As to the method: Abeta oligomers were prepared using beta-amyioid (1-42) from American Peptide (Product #62-0-80). One aliquot was dissolved in an adequate volume of TBS (50 mM Tris-Buffer, 150 mM NaCl, pH=7.4) to achieve a final concentration of 1.7 mg/ml (corresponding to 340 μM). The solution was sonicated for 2 minutes and then diluted 1:2 in water to obtain a final concentration of 170 μM. Next, the Abeta was allowed to aggregate at 4′C for 48 hours. Prior to application, the solution was sonicated for another minute.
Bv-2 microglial cells were kept in culture medium (DMEM medium, 10% FBS, 2 mM glutamine, 1% Penc/Strep) until 80-90% confluency. Cells were maintained at 37° C., 95% humidity and 5% CO2. Afterwards, cells were seeded in culture medium on 24-well plates at a cell density of 1×10^5 cells per well. After 24 h, the medium was exchanged for the treatment medium (DMEM medium, 5% FBS, 2 mM glutamine). […] The medium was separated by affinity (removing monomers) and the oligomers not phagocytosed were disaggregated by HFIP treatment and measured by MSD. […]
The immune assay was carried out according to the manual and plates were read on the Sector Imager (MSD). Analyte levels were evaluated according to adequate Aβ peptide standards (MSD). […] Group differences are evaluated by one-way ANOVA.

For data set [17], the system named is Rat cortical neurons. As to the kind of experiment: neurite network assessment with Aβ1-42 oligomers in cortical cell culture. It is filed as cell-based. As to the method: Rat cortical neurons were cultured as described by Callizot et al (J Neurosci Res 2013, 91:706-716). On day 11 of culture, Aβ oligomer solution, 20 μM, was applied. The Aβ oligomer preparation, having an average weight of 90 kDa, prepared as described by Callizot et al (op cit) contained only diffusible species, not fibrils or protofibrils. Briefly, Aβ1-42 peptide at a concentration of 40 μM was dissolved in the culture medium, gently agitated for 3 days at 37° C. in the dark, and used immediately after dilution. SDL 11349 and BDNF (50 ng/ml) were dissolved in culture medium (maximum of 0.1% DMSO final concentration) then pre-incubated with primary cortical neurons for 24 h before the Aβ1-42 oligomer solution application.
The oligomers were incubated with the neurons and various concentrations of SDL 11349, or BDNF, 50 ng/ml, the positive control, for 24 hours, in 6 replicates per condition. Then the supernatant was removed and the neurons were fixed with a cold ethanol and acetic acid solution. The cells were permeabilized with 0.1% saponin and then incubated for 2 h with mouse monoclonal antibody […] microtubule-associated protein 2 (MAP-2). Subsequently, Alexa-Fluor 488 goat anti-mouse IgG was applied, and images were obtained and analyzed automatically.

The test system of data set [18] is CA1 pyramidal neurons in the dorsal hippocampus. As to the kind of experiment: dendritic spine assessment after 5 days ip treatment. The class given is in vivo, mice. As for the experimental part: Adult C57B16 mice, (8 weeks old) were administered vehicle or SDL 11349, 0.005, 0.03, 0.07, 0.1 or 0.2 mg/kg, ip, per day for five days prior to sacrifice after rapid anesthetization with isofluorane. Brain tissue was sectioned into […] slices from anterior to posterior extremes.
Ballistic dye labelling was performed, followed by laser-scanning confocal microscopy (Olympus FV1000) using a 63× objective (1.42 NA) to scan individually labelled neurons at high resolution (0.103×0.103×0.33 μm voxels). Target neurons were identified in the brain region of interest by anatomical location and cell morphology. Microscopy was performed blind to experimental conditions. A minimum of 5 samples per animal were measured for each segment.
Blind deconvolution (AutoQuant) was applied to raw three-dimensional digital images which were then analyzed for spine density and morphology by trained analysts. Individual spines were measured manually for (a) head diameter, (b) length, and (c) neck thickness from image Z-stacks using custom-built Afraxis ESP software. Each dendrite was analyzed by 3 independent analysts.
Automated image assignment software (C++) distributed images to analysts in a randomized manner and ensured that each analyst performed measurements of near equal numbers of dendrites per group. Analysts were blinded to all experimental conditions. […] For spine density and spine morphological classification, data across analysts were averaged to report data for each dendrite. Data population values (N's) were reported from dendrites collected equally from all mice.
Values are reported in tables and plots as group means±standard errors of the mean (SEMs). For all group comparisons of parametric values, statistical significance was determined using the analysis of variance test (ANOVA; SPSS). Post-hoc comparisons were assessed using the Student's t-test (2 tails). […]
Dendritic spine morphology was analyzed from samples taken from secondary apical dendrites, and secondary basal dendrites of CA1 pyramidal neurons in the dorsal hippocampus. […] A 50 μm segment was analyzed from each location.

For data set [19], the system named is CaCo-2 cells. The data set is described as follows: in vitro permeability of a layer of CaCo-2 cells. The class given is in vitro ADME, human. The conditions noted are these: for mean A−>B Papp (apparent permeability): test conc 50 μM. For orientation: Passage across Caco-2 layers is used to estimate intestinal permeability.
Data set [20] has as its system mild to moderate Alzheimer patients. The conditions noted are these: 78-week study; cited from earlier work.

T2 sequence (P22303 32-614, species assumed): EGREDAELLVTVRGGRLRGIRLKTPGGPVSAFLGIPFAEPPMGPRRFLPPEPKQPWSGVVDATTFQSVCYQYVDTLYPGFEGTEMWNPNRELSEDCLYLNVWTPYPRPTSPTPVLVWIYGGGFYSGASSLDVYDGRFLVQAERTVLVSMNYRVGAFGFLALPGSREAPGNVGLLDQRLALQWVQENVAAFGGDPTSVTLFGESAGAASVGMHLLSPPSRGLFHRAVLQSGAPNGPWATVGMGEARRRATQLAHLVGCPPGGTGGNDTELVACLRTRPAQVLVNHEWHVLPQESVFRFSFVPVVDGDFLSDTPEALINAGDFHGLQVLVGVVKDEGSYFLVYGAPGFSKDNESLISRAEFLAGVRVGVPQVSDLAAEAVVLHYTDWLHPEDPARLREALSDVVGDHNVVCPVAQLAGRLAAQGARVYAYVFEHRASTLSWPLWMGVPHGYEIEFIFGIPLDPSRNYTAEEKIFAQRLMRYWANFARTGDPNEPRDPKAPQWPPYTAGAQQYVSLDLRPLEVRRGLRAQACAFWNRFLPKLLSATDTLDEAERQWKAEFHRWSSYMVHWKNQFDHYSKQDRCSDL
T1 sequence (Q05941 23-502): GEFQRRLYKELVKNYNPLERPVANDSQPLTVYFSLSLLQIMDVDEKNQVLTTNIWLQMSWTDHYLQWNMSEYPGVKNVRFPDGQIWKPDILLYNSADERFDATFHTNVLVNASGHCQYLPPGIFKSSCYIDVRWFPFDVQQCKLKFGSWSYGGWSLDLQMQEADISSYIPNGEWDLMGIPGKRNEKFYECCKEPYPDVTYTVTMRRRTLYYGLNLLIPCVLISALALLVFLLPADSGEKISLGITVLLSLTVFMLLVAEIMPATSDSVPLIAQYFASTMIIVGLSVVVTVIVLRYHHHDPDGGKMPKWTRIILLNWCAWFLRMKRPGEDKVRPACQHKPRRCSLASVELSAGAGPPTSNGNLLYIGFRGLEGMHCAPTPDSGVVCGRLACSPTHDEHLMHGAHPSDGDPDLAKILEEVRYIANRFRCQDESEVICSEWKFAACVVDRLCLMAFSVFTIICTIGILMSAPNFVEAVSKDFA

As to `COc1ccc2c3c1O[C@H]1C[C@@H](O)C=C[C@@]31CCN(C)C2` [Galanthamine HBr], in data set [1] (5.0 μM, Mouse), the “NADPH-dependent T1/2 (half-life)” value was >1 h and the “NADPH-free T1/2 (half-life)” value is >1 h.
Take `CN(C)Cc1ccc2c(Cl)cc(Cl)c(O)c2n1` [PBT2]: in data set [2], the “CSF Aβ42” value is listed as “decreased significantly”.
Consider `Oc1c(I)cc(Cl)c2cccnc12` [Clioquinol], for which the ADAS-cog result in [3] is on record as “decreased deterioration on the ADAS-cog”.
Take `NC(=O)[C@@H](CCC(F)(F)F)N(Cc1ccc(-c2ncon2)cc1F)S(=O)(=O)c1ccc(Cl)cc1` [avagacestat]: the “CSF Aβ40” value in [4] (human, in vivo) is listed as “effectively reduces CSF Aβ40”. The conversion to dementia entry in data set [4] (prodromal Alzheimer's disease, reduced CSF Aβ42) is on record as “no reduction in conversion to dementia”.
For `CC(C)[C@H](O)C(=O)N[C@@H](C)C(=O)N[C@@H]1C(=O)N(C)CCc2ccccc21` [semagacestat], in data set [5], the “CSF Aβ” value is recorded as “potently decreased CSF Aβ”; the “reason for termination of Phase III trials” value was “poorer performance in treated than placebo patients, and an increased incidence of skin cancer”.
Consider `C[C@@H](C(=O)O)c1ccc(-c2ccccc2)c(F)c1` [tarenflurbil], for which, in data set [6], the “Phase III outcome” value is “failed in Phase III”.
As for `Nc1c2c(nc3ccccc13)CCCC2` [tacrine], in data set [7], the neuroprotective effect result is recorded as “did not occur”.
As to `CN1CCCC1c1cccnc1` (centres unmarked) [Nicotine], the “protection against Aβ plus glutamate toxicity” value in data set [8] was “protective against Aβ plus glutamate toxicity”.
For the molecule `NCCCS(=O)(=O)O` [Tramiprosate], in [9], the ADAS-cog result is on record as “trend towards improvement on the ADAS-cog” and the hippocampal volume result was “reduction of hippocampal volume loss”.
For `CCCCNC(=O)O[C@H]1C=C[C@@]23CCN(C)Cc4ccc(OC)c(c42)O[C@H]3C1` [SDL 11349, n-butylcarbamate derivative (4aS,6R,8aS)-5,6,9,10,11,12-hexahydro-3-methoxy-11-methyl-4aH-[1]benzofuro[3a,3,2-ef][2]benzazepin-6-ol], in [1] (5.0 μM, Mouse), the “NADPH-free T1/2 (half-life)” value was >1 h. Also, the “half-life in liver microsomes” value in data set [1] (in-vitro preparation) is “greater than 60 minutes”. The microsomal CLint at 5 μM in data set [1] (liver microsomes, 5.0 μM, Mouse, read-out: NADPH-dependent CLint (microsomal intrinsic clearance)) was 23.5 µL/min/mg. Moreover, in data set [10] (1 μM, 1.5 mM choline), the “enhancement of the depolarization caused by choline” value is recorded as 15.9±2.1%. Also, the “enhancement in presence of FK-1, antibody to the galantamine recognition site” value in data set [10] is reported as “blocked”. In [11], the half-inhibitory concentration (IC50) was 1090 nM. Moreover, the “additional time remaining in the lighted compartment versus saline” value in data set [12] (given during training, optimal performance) is “about 100 seconds”. Also, the “best dose for memory enhancement” value in [12] (passive avoidance) is given as 0.5 mg/kg. In data set [13], the “enzymatic activity relative to galantamine” value is “about 36%”. In [14], the “plasma concentrations at two hours compared with galantamine” value is listed as “slightly lower than those of galantamine” and the “stability in mouse plasma” value was “stable for greater than two hours”. In data set [15], the “dose at which decreased motility appeared” value is reported as > 30 mg/kg and the “lethality (no lethality up to)” value is given as > 100 mg/kg. Besides, the adverse effects observed result in data set [15] (doses of 50-100 mg/kg) is “wobbly and off-balance with rapid heart rate still present at 4 hours, but were recovered at 24 hours”. Besides, the “reduction of β-amyloid oligomer concentration in the medium” value in data set [16] was 38-40%. Also, in data set [17] (1 μM, Aβ oligomer 20 μM, 24 h), the “effect on Aβ oligomer-induced loss of neurite network” value is “blocked the toxic effect of the Aβ oligomers”. In addition, in [18] (0.005-0.2 mg/kg ip per day for five days), the “total spine density, basal samples” value was “no effect”. For the same molecule, the “total spine density, apical dendritic samples, versus vehicle” value in data set [18] (0.005-0.2 mg/kg ip per day for five days, all dose groups) is “statistically significant difference (p<0.05, 2-tailed t-test) or trend (p<.01) compared to vehicle controls”. Besides, the “mature spines on apical dendrites of CA1 pyramidal neurons” value in data set [18] (treatment for 5 days) is “specifically increases mature spines”. Moreover, the predicted oral bioavailability in [19] (based on in vitro CaCo-2 permeability) was 80%. Moreover, the “mean A−>B Papp (apparent permeability)” value in [19] was 20.8 10^−6 cm s^−1.
With `CNC(=C[N+](=O)[O-])NCCSCc1ccc(CN(C)C)o1` [Ranitidine], in data set [19], the “mean A−>B Papp (apparent permeability)” value is 1.1 10^−6 cm s^−1.
`O[C@H]1[C@H](O)[C@@H](O)[C@H](O)[C@@H](O)[C@@H]1O` [ELND005, scyllo-inositol]: in [20], the “CSF Aβ and ventricular volume” value is “Significant decreases in CSF Aβ and increases in ventricular volume”; the “cognitive or behavioral tests” value was “no benefit on any cognitive or behavioral test”.

B1: BDNF: brain-derived neurotrophic factor, positive control, gold standard of the neurite assay (protein, UniProt P23560 19-247, looked up)
Neurotrophic factor BDNF …: APMKEANIRGQGGLAYPGVRTHGTLESVNGPKAGSRGLTSLADTFEHVIEELLDEDQKVRPNEENNKDADLYTSRVMLSSQVPLEPPLLFLLEEYKNYLDAANMSMRVRRHSDPARRGELSVCDSISEWVTAADKKTAVDMSGGTVTVLEKVPVSKGQLKQYFYETKCNPMGYTKEGCRGIDKRHWNSQCRTTQSYVRALTMDSKKRIGWRFIRIDTSCVCTLTIKRGR
Take B1: the “effect on Aβ oligomer-induced loss of neurite network” value in data set [17] (50 ng/ml, positive control) is listed as “preserves the neurite network”.

The microsomal CLint is a measure of how fast metabolising enzymes remove a compound, apart from limits set by blood flow. Usually IC50 stands for the midpoint of a concentration-inhibition curve.
